Assay results as given in publication PMC11302729, “Repurposing Hsp90 inhibitors as antimicrobials targeting two-component systems identifies compounds leading to loss of bacterial membrane integrity” (Microbiology Spectrum, 2024).
In brackets after ≈: the same amount, converted by molar mass. Several values for one entry are separate records, joined by “and”; a condition that tells them apart may be missing. Equal values may be shown once. Read-outs that look alike come from different tables or passages of the source. No end group written: not given here.

Key:
Format in all cases: cell-based
[1] = test system: Escherichia coli JW5503 (ΔtolC); assay: MIC (microdilution) against E. coli JW5503; details: Escherichia coli, read-out: MIC E. coli JW5503
Source text: (§1) We also tested the inhibitory activity of compounds in two different E. coli mutants: (i) E. coli JW5503 that lacks TolC efflux pumps and (ii) E. coli D21f2 that has a defective LPS inner core increasing permeability of the outer membrane. E. coli D21f2 has a slightly higher susceptibility to DPP compounds than E. coli ATCC25922.
(§2) Staphylococcus aureus str. Newman, Enterococcus faecalis vanA (strain E0155), Enterococcus faecium vanA (strain E1654), Escherichia coli ATCC 25922, Escherichia coli D21f2 with a truncated LPS barrier, Escherichia coli JW5503 (ΔtolC) ([49]), Pseudomonas aeruginosa ATCC 27853, and Pasteurella haemolytica ATCC 29701 were grown in Mueller-Hinton Broth (MHB) (Oxoid, Basingstoke, UK) and incubated at 37°C.
(§3) The minimal inhibitory concentration was determined using the microdilution method following the guidelines of the European Committee on Antimicrobial Susceptibility Testing ([50]). Briefly, a series of twofold dilutions in MHB of each compound were made in a 96-well plate, with final concentrations ranging from 50 to 0.39 µg/mL in 100 µL final volume per well. A hundred microliters of 1:100 dilution of an overnight culture of the correspondent bacteria in MHB was added to each well. Plates were incubated for 18 hours at 37°C. MIC was recorded as the lowest concentration where no growth was detected as measured by optical density at 600 nm (OD600) using Spectramax M5 (Molecular Devices LLC, San Jose, CA, USA). […] Wells containing bacteria with or without 1% DMSO and medium alone were included as controls in every plate.

[2] = test system: Enterococcus faecalis vanA (strain E0155); assay: MIC (microdilution) against E. faecalis; details: Enterococcus faecalis, read-out: MIC E. faecalis
Experimental: as §2, §3

[3] = test system: Staphylococcus aureus str. Newman; assay: Minimal inhibitory concentration (microdilution) against S. aureus; details: for MIC S. aureus: Table ST3
Experimental: as §2, §3

[4] = test system: Enterococcus faecium vanA (strain E1654); assay: MIC (microdilution) against E. faecium; details: Enterococcus faecium, read-out: MIC E. faecium
Experimental: as §2, §3

[5] = test system: Pasteurella haemolytica ATCC 29701; assay: MIC (microdilution) against P. haemolytica; details: Mannheimia haemolytica, ATCC29701, read-out: MIC P. haemolytica, Table ST1
Experimental: as §2, §3

[6] = test system: Pseudomonas aeruginosa ATCC 27853; assay: MIC (microdilution) against P. aeruginosa; details: Pseudomonas aeruginosa
Experimental: as §2, §3

[7] = test system: Escherichia coli ATCC 25922; assay: MIC (microdilution) against E. coli; details: Escherichia coli
Experimental: as §2, §3

HEK293 cells = assay: in vitro; details: LC50/MIC (HEK293 / S. aureus)
Experimental: (§4) HEK293 cells and the human hepatocellular carcinoma cells (HepG2) were routinely cultured in 75-cm^2 culture flasks (Corning Incorporated) on high-glucose Dulbecco’s modified Eagle medium (DMEM) containing glutaMax and phenol red (Gibco) supplemented with 1% penicillin/streptomycin (Gibco) and 10% fetal bovine serum (FBS) (Gibco). Cells were maintained at 37°C and 5% CO2.
(§5) Cytotoxicity assays with HEK293 and HepG2 cells were performed in 96-well plates seeded with 5 × 10^4 cells/well and incubated for 24 hours to reach 80%–90% confluency. Exterior wells were filled with only medium to prevent evaporation. Culture medium was removed from the cells, and 100 µL of exposure medium [high-glucose DMEM without phenol red (Gibco)] was added to avoid a potential interaction between FBS components or antibiotics and tested compounds. A twofold dilution series of compounds in exposure medium (range 100–3.2 μg/mL) was made in a separate 96-well plate, and 100 µL of each of these dilutions was added to the assay plates for 24 hours at 37°C in the presence of 5% CO2. Control wells contained cells with DMEM, DMEM + 1% DMSO (vehicle control), or DMEM + 20% DMSO. Wells without cells were also included as negative control. After exposure, the medium was replaced with 100 µL 10% Alamar Blue (Invitrogen) in exposure medium. After 45 min incubation at 37°C and 5% CO2, fluorescence was measured on a Spectramax M5 plate reader at λex = 541 nm, λem = 590 nm. Cell viability compared with the vehicle control was calculated, and inhibition curves for each compound were fitted (non-linear curve fit, four variables, bottom constrained = 0) in Prism 9 (GraphPad Software, San Diego, USA).

in vitro = details: human
Experimental: as §4, §5

S. aureus str. Newman = assay: Membrane permeability using SYTOX-Green, flow cytometry; details: for % FITC stained bacteria 0.5 xMIC: 0.5× MIC; for % FITC stained bacteria 1 xMIC: 1× MIC; for Membrane damage: if considered to cause membrane damage to S. aureus
Experimental: S. aureus str. Newman was grown to exponential phase (OD600 = 0.4) in MHB media. […] Nisin (Sigma-Aldrich) and novobiocin (Sigma-Aldrich) were used as positive and negative controls for membrane permeabilization, and stained and unstained untreated controls were also included in each assay. After exposure, samples were centrifuged at 4,000 r.p.m. for 5 min and resuspended in PBS. Bacteria were dyed by adding the fluorescent nuclear stain SYTOX Green (Molecular Probes, Invitrogen) to a final concentration of 0.5 µM and incubating for 5 min in the dark. Samples were centrifuged again and resuspended with PBS to remove unbound stain. Three hundred microliters of each sample was transferred to a clean well in a 96-well clear-bottom plate (Corning Incorporated). Fluorescence was measured in CytoFLEX flow cytometer (Beckman Coulter, Brea, CA, USA) using the green (FITC) channel with the excitation wavelength at 488 nm. Overlay histograms were created with CytExpert Software (Beckman Coulter, Brea, CA, USA).

[8] = test system: Escherichia coli D21f2 with a truncated LPS barrier; assay: MIC (microdilution) against E. coli D21f2; details: read-out: MIC E coli D21f2
Source text: as §1, §2, §3

[9] = Staphylococcus aureus, NEWMAN, Fig 2
[10] = Staphylococcus aureus, NEWMAN, Fig 2, value in parentheses
[11] = Table ST3, value in parentheses
[12] = ATCC27853, Table ST1, read-out: MIC P. aeruginosa
[13] = ATCC25922, Table ST1, read-out: MIC E. coli

Row | Compound | MIC [1] | MIC [2] | MIC [3, 9] | MIC [3, 10] | MIC S. aureus [3] | MIC [3, 11] | MIC [4] | MIC [5] | MIC [6, 12] | MIC [7, 13] | Selectivity Index (HEK293 cells) | CC50 at 24 h (in vitro) | % FITC stained bacteria 0.5 xMIC (S. aureus str. Newman; 5 min exposure) | % FITC stained bacteria 1 xMIC (S. aureus str. Newman; 5 min exposure) | % FITC stained bacteria 2 xMIC (S. aureus str. Newman; 2× MIC, 5 min exposure) | Membrane damage (S. aureus str. Newman) | also measured
1 | COc1ccc(-c2[nH]nc(C(F)(F)F)c2-c2ccc(OC)c(OC)c2)c(O)c1 [DPP-19] | 12.5 µg/mL (≈ 31.7 µM) | 50 µg/mL (≈ 127 µM) | 25 µg/mL | 63.3 µM | 25 µg/mL (≈ 63.4 µM) | 63.29 µM | 50 µg/mL (≈ 127 µM) | > 250 µg/mL | > 250 µg/mL | > 250 µg/mL | 0.55 | 13.7 µg/mL and 34.6 µM | – | – | – | – | –
2 | COc1ccc(-c2[nH]nc(C(F)(F)F)c2-c2ccccc2OC)c(O)c1 [DPP-17] | 6.25 µg/mL (≈ 17.2 µM) | – | 25 µg/mL | 68.5 µM | 25 µg/mL (≈ 68.6 µM) | 68.49 µM | > 250 µg/mL | 50 µg/mL (≈ 137 µM) | – | – | 0.50 | 12.6 µg/mL and 34.5 µM | – | – | – | – | MIC ([2]; 18 h): > 250 µg/mL; MIC ([6]; ATCC27853, read-out: MIC P. aeruginosa): > 250 µg/mL; MIC ([7]; ATCC25922, read-out: MIC E. coli): > 250 µg/mL
3 | Oc1ccc(-c2[nH]nc(C(F)(F)F)c2-c2ccccc2)c(O)c1 [DPP-1] | 1.56 µg/mL (≈ 4.87 µM) | 12.5 µg/mL (≈ 39 µM) | 6.25 µg/mL | 19.5 µM | 6.25 µg/mL (≈ 19.5 µM) | 19.53 µM | 12.5 µg/mL (≈ 39 µM) | 25 µg/mL (≈ 78.1 µM) | > 250 µg/mL | > 250 µg/mL | 0.65 | – | 30.46% | 39.72% | 46.63% | YES | –
4 | CO[C@@H]1[C@@H](OC(N)=O)[C@@H](O)[C@H](Oc2ccc3c(O)c(NC(=O)c4ccc(O)c(CC=C(C)C)c4)c(=O)oc3c2C)OC1(C)C [Novobiocin, reference compound] | – | – | – | – | – | – | – | – | – | – | – | – | 8.28% | 12.62% | 13.17% | – | Effect on membrane integrity (S. aureus str. Newman; 2× MIC, 5 min exposure): no effect on membrane integrity
5 | COc1ccc(-c2c(C(F)(F)F)n[nH]c2-c2ccc(O)cc2O)cc1OC [DPP-18] | 6.25 µg/mL (≈ 16.4 µM) | 50 µg/mL (≈ 131 µM) | 50 µg/mL | 132 µM | 50 µg/mL (≈ 131 µM) | 131.58 µM | 50 µg/mL (≈ 131 µM) | > 250 µg/mL | > 250 µg/mL | > 250 µg/mL | 0.45 | 22.8 µg/mL and 60 µM | – | – | – | – | –
6 | COc1ccc(-c2[nH]nc(C)c2-c2ccc(Cl)cc2)c(O)c1 [DPP-10] | 6.25 µg/mL (≈ 19.9 µM) | 250 µg/mL (≈ 794 µM) | 25 µg/mL | 79.4 µM | 25 µg/mL (≈ 79.4 µM) | 79.37 µM | 250 µg/mL (≈ 794 µM) | 62.5 µg/mL (≈ 199 µM) | > 250 µg/mL | > 250 µg/mL | 0.93 | – | 28.57% | 37.28% | 40.99% | YES | MIC [8]: 250 µg/mL (≈ 794 µM)
7 | COc1ccccc1-c1c(C(F)(F)F)n[nH]c1-c1ccc(O)cc1O [DPP-16] | 3.13 µg/mL (≈ 8.94 µM) | 50 µg/mL (≈ 143 µM) | 25 µg/mL | 71.4 µM | 25 µg/mL (≈ 71.4 µM) | 71.43 µM | 50 µg/mL (≈ 143 µM) | 50 µg/mL (≈ 143 µM) | > 250 µg/mL | > 250 µg/mL | 0.65 | 16.4 µg/mL and 46.7 µM | – | – | – | – | –
8 | Cc1n[nH]c(-c2ccc(O)cc2O)c1-c1ccc(Cl)cc1 [DPP-9] | 12.5 µg/mL (≈ 41.6 µM) | 25 µg/mL (≈ 83.1 µM) | 25 µg/mL | 83.3 µM | 25 µg/mL (≈ 83.1 µM) | 83.33 µM | 25 µg/mL (≈ 83.1 µM) | 25 µg/mL (≈ 83.1 µM) | > 250 µg/mL | > 250 µg/mL | 0.49 | – | 38.22% | 41.34% | 43.78% | YES | MIC [8]: 50 µg/mL (≈ 166 µM)
9 | Nisin: positive control for membrane permeabilization (ITSISLCTPGCKTGALMGCNMKTATCHCSIHVSK; ends and bridges not checked; also: lantibiotic nisin A: dehydrated residues and lanthionine rings not given here; UniProt P13068 24-57, looked up) [reference compound] | – | – | – | – | – | – | – | – | – | – | – | – | 16.37% | 53.32% | 59.41% | – | –
